Measurements from patent publication US9777106B2, “Bisphenol polymer precursor replacements” (CASE WESTERN RESERVE UNIVERSITY, priority 2013, dated 2017).

Key:
[1] = tested on: mouse embryonic stem cells; assay: Cytotoxicity and apoptosis assay (annexin-V / 7-AAD) in mouse embryonic stem cells; assay type: cell-based; settings: incubated with mouse embryonic stem cells; FIG. 1
From the text: Bisphenols have come under increasing scrutiny due to their capacity to mimic estrogen in biological systems, resulting in numerous health complications. Specifically these effects have been observed in endothelial cell differentiation. Bredhult et al., “Gene expression analysis of human endometrial endothelial cells exposed to Bisphenol A,” Reproductive toxicology (Elmsford, N.Y 28, 18-25 (2009). Long et al., Experimental biology and medicine, 226, 477-483 (2001). Accordingly, experiments have been carried out to evaluate the cytotoxicity and differentiation effect of a biologically derived bisphenol polymer precursor replacement. Resveratrol and bisphenol A were incubated with mouse embryonic stem cells and evaluated for cytotoxicity and apoptosis. Cells were then differentiated and evaluated for effect on endothelial differentiation. […]
The procedure for testing toxicity was and can be carried out as follows. […] 100,000 E14 cells were added to a 10 cm plate, covered with 1, 10 and 100 mg of polymer sample, and incubated for 48 hours followed by application of the MTT dye solutions and measurement of absorbance at 570 nm.
The number of apoptotic cells are quantified using an annexin-V apoptosis staining kit with 7-Amino-actinomycin D (7-AAD) vital stain (AnnexinV—PE Apoptosis Detection Kit; BD Biosciences Pharmingen, San Diego, Calif.). […]

[2] = tested on: mouse embryonic stem cell line (endothelial differentiation reporter); assay: Endothelial differentiation assay in reporter mouse embryonic stem cell line (green fluorescent protein readout); assay type: cell-based; settings: FIG. 1; for effect on estrogen receptor function: reporter cell line; for effect on cell (endothelial) differentiation: reporter mouse embryonic stem cell line, cells differentiated after incubation
From the text: Bisphenols have come under increasing scrutiny due to their capacity to mimic estrogen in biological systems, resulting in numerous health complications. Specifically these effects have been observed in endothelial cell differentiation. Bredhult et al., “Gene expression analysis of human endometrial endothelial cells exposed to Bisphenol A,” Reproductive toxicology (Elmsford, N.Y 28, 18-25 (2009). Long et al., Experimental biology and medicine, 226, 477-483 (2001). Accordingly, experiments have been carried out to evaluate the cytotoxicity and differentiation effect of a biologically derived bisphenol polymer precursor replacement. Resveratrol and bisphenol A were incubated with mouse embryonic stem cells and evaluated for cytotoxicity and apoptosis. Cells were then differentiated and evaluated for effect on endothelial differentiation. […] Further studies are planned to test further stages of resveratrol epoxidization. The inventor's lab has developed a mouse embryonic stem cell line capable of providing a quantitative readout of endothelial differentiation due to expression of a green fluorescent protein. Using these and similar cell lines we have been able to assay the effect of new molecules on cell proliferation, death, apoptosis, and endothelial differentiation. Robilotto et al., Dalton Transactions, 40(32): 8083-5 (2011). This cell line will be used to determine the biological effect of the newly proposed polymers as compared to the effect of benchmark controls. Protocols similar to those previously published can be used to determine the biocompatibility of the new polymers as compared to that of benchmark resin, evaluating the capacity of mouse embryonic stem cells to proliferate, their rate of cell death by toxicity or apoptosis, and their capacity to differentiate into […]. Kim et al., Tissue engineering, 15, 3709-3718 (2009); Kim et al., Tissue engineering, 16, 1065-1074 (2010).

Structure (SMILES)	over toxicity using the apoptosis assay [1]	effect on estrogen receptor function [2]	effect on estrogen receptor function ([2]; listed as BPA)	effect on cell (endothelial) differentiation [2]	effect on cell (endothelial) differentiation ([2]; listed as BPA)
CC(C)(c1ccc(O)cc1)c1ccc(O)cc1 [bisphenol A]	relatively indistinguishable	clearly interferes with estrogen receptor function	interferes estrogen receptor function	negatively effects cell differentiation	negatively impacts cell differentiation
Oc1ccc(C=Cc2cc(O)cc(O)c2)cc1 [Resveratrol, resveratrol]	relatively indistinguishable	little to no impact on estrogen receptor function		comparable to negative controls	
